According to US5972933A, “Method of treating microbial infections” (Ed. Geistlich Sohne AG Fur Chemische Industrie, priority 1998, dated 1999):
In brackets after ≈: the same amount, converted by molar mass. Entries after “also recorded” stand apart in the source; their conditions may differ. Where two headings read alike, the source gives them in different places.

Tests used:
Enterococcus faecalis = assay: Taurolidine in vitro susceptibility, E. faecalis (Example 4); format: cell-based; conditions: E. faecalis
Description: (§1) The in vitro susceptibility to taurolidine of a panel of clinical isolates and reference strains of Enterococcus faecium (n=20,7 strains vancomycin resistant) and Enterococcus faecalis (n-53,5 strains vancomycin resistant) has been examined. […] In all cases, the Minimum Bacteriocidal Concentration (MBC) of taurolidine was within 2 dilutions of the corresponding value for MIC confirming a bactericidal mode of action. In vitro resistance to taurolidine was not observed.

Enterococci = assay: Taurolidine in vitro susceptibility, Enterococci overall (Example 4); format: cell-based, Enterococcus faecium and Enterococcus faecalis
Description: as §1

E. faecium = assay: Two percent taurolidine solution tested against bacteria, E. faecium (Example 5); format: cell-based; conditions: Enterococcus faecium, 48 h, 5×10^4 CFU/well, one line per sample (strain)
Protocol: (§2) Two percent taurolidine solution was tested against various bacteria at 5×10^4 CFU/well, according to Manual of Clinical Microbiology, 6th edition, P. R. Murray et al., pp. 1334-1335.

Staph. app. = assay: Two percent taurolidine solution tested against bacteria, Staph. app. (Example 5); format: cell-based; conditions: 5×10^4 CFU/well
Protocol: as §2

E. faecalis = assay: Two percent taurolidine solution tested against bacteria, E. faecalis (Example 5); format: cell-based; conditions: Enterococcus faecalis, 24 h, 5×10^4 CFU/well, one line per sample (strain)
Protocol: as §2

bacteria and fungi [1] = assay: Antimicrobial activity (general statements); format: cell-based
TNF production = TNF production in human blood / antibiotic-treated cultures; format: cell-based
Description: Taurolidine and/or Taurultam prevent over-production of cytokines in the patient by monocytes of the blood.

bacteria and fungi [2] = conditions: known antimicrobial substances; cited from earlier work
[3] = cited from earlier work

For O=S1(=O)CCN(CN2CCS(=O)(=O)NC2)CN1 [Taurolidine], the MIC (Enterococcus faecalis; VAN R strains, read-out: MIC, Min.) was 125 µg/mL (≈ 440 µM), the MIC (Enterococcus faecalis; VAN R strains, read-out: MIC, Mode) was 250 µg/mL (≈ 879 µM) and the MBC (Enterococcus faecalis; VAN S strains, read-out: MBC, Avg.) was 566 µg/mL (≈ 1990 µM). For the same molecule, the MBC (Enterococcus faecalis; VAN S strains, read-out: MBC, Max.) was 750 µg/mL (≈ 2640 µM), the MBC (Enterococcus faecalis; VAN S strains, read-out: MBC, Mean) was 566 µg/mL (≈ 1990 µM) and the MBC (Enterococcus faecalis; VAN S strains, read-out: MBC, Median) was 500 µg/mL (≈ 1760 µM). It also gave an MBC (Enterococcus faecalis; VAN S strains, read-out: MBC, Min.) of 375 µg/mL (≈ 1320 µM), an MBC (Enterococcus faecalis; VAN S strains, read-out: MBC, Mode) of 500 µg/mL (≈ 1760 µM) and an MIC (Enterococcus faecalis; VAN S strains, read-out: MIC, Avg.) of 289 µg/mL (≈ 1020 µM). The MIC (Enterococcus faecalis; VAN S strains, read-out: MIC, Max.) was 500 µg/mL (≈ 1760 µM), the MIC (Enterococcus faecalis; VAN S strains, read-out: MIC, Mean) was 289 µg/mL (≈ 1020 µM) and the MIC (Enterococcus faecalis; VAN S strains, read-out: MIC, Median) was 250 µg/mL (≈ 879 µM). The MIC (Enterococcus faecalis; VAN S strains, read-out: MIC, Min.) was 190 µg/mL (≈ 668 µM), the MIC (Enterococcus faecalis; VAN S strains, read-out: MIC, Mode) was 250 µg/mL (≈ 879 µM) and the MBC (Enterococcus faecalis; VAN S, Germany, read-out: MBC, (VAN S) model) was 750 µg/mL (≈ 2640 µM). It also gave an MIC (Enterococcus faecalis; VAN S, Germany, read-out: MIC, (VAN S) model) of 375 µg/mL (≈ 1320 µM), an MBC (Enterococcus faecalis; VAN S, Switzerland, read-out: MBC, (VAN S) model) of 500 µg/mL (≈ 1760 µM) and an MIC (Enterococcus faecalis; VAN S, Switzerland, read-out: MIC, (VAN S) model) of 375 µg/mL (≈ 1320 µM). The MBC (Enterococcus faecalis; VAN S, UK, read-out: MBC, (VAN S) model) was 500 µg/mL (≈ 1760 µM), the MIC (Enterococcus faecalis; VAN S, UK, read-out: MIC, (VAN S) model) was 250 µg/mL (≈ 879 µM) and the MBC (Enterococcus faecalis; all strains, read-out: MBC, Avg.) was 606 µg/mL (≈ 2130 µM). It also gave an MBC (Enterococcus faecalis; all strains, read-out: MBC, Max.) of 750 µg/mL (≈ 2640 µM), an MBC (Enterococcus faecalis; all strains, read-out: MBC, Mean) of 606 µg/mL (≈ 2130 µM) and an MBC (Enterococcus faecalis; all strains, read-out: MBC, Median) of 500 µg/mL (≈ 1760 µM). For the same molecule, the MBC (Enterococcus faecalis; all strains, read-out: MBC, Min.) was 375 µg/mL (≈ 1320 µM), the MBC (Enterococcus faecalis; all strains, read-out: MBC, Mode) was 500 µg/mL (≈ 1760 µM) and the MIC (Enterococcus faecalis; all strains, read-out: MIC, Avg.) was 310 µg/mL (≈ 1090 µM). For the same molecule, the MIC (Enterococcus faecalis; all strains, read-out: MIC, Max.) was 500 µg/mL (≈ 1760 µM), the MIC (Enterococcus faecalis; all strains, read-out: MIC, Mean) was 310 µg/mL (≈ 1090 µM) and the MIC (Enterococcus faecalis; all strains, read-out: MIC, Median) was 375 µg/mL (≈ 1320 µM). For the same molecule, the MIC (Enterococcus faecalis; all strains, read-out: MIC, Min.) was 125 µg/mL (≈ 440 µM), the MIC (Enterococcus faecalis; all strains, read-out: MIC, Mode) was 375 µg/mL (≈ 1320 µM) and the “difference in degree of susceptibility between E. faecalis and E. faecium” value (Enterococci) was “no difference in degree of susceptibility”. The “In vitro resistance to taurolidine” value (Enterococci; E. faecium and E. faecalis) was “not observed”, the “MBC relative to corresponding MIC” value (Enterococci; all cases, bactericidal mode of action) was no more than 2 dilutions and the “difference in MICs or MBCs between strains” value (Enterococci; vancomycin-sensitive or vancomycin-resistant, various locations across Europe) was “No differences were noted”. For the same molecule, the MIC (E. faecium) was 250 µg/mL (≈ 879 µM), the MBC (Staph. app.; 24 h) was 375 µg/mL (≈ 1320 µM) and the MIC (Staph. app.; 24 h, read-out: MIC 24 h) was 190 µg/mL (≈ 668 µM). For the same molecule, the MIC (Staph. app.; 48 h, read-out: MIC 48 h) was 250 µg/mL (≈ 879 µM), the MBC (E. faecalis) was 500 µg/mL (≈ 1760 µM) and the “rate of bacterial killing” value (bacteria and fungi [1]) was “kills bacteria slowly”. The resistance development (bacteria and fungi [1]) was “Resistance has not been observed either in vivo or in vitro; also recorded: no resistance development by microbes has been observed”, the “in vitro effectiveness against bacterial strains” value (bacteria and fungi [1]; in vitro, including multi-resistant strains, VRE and MRSA) was “effective against all gram negative and gram positive bacterial strains tested to-date” and the “in vitro effectiveness against antibiotic-resistant pathogens” value (bacteria and fungi [1]; in vitro, pathogens resistant to methicillin and vancomycin) was “fully effective in vitro”. The antifungal activity (bacteria and fungi [1]; yeast-like and filamentous fungi) was “useful activity against most yeast-like and filamentous fungi”, the TNF production (TNF production; added to antibiotic-treated cultures) was “prevents a rise in TNF production” and the “neutralization of released endotoxins” value (TNF production; antibiotic-treated cultures) was “nearly complete neutralization of released endotoxins”. The antimicrobial spectrum (bacteria and fungi [2]) was “broad-spectrum activity against aerobic and anaerobic bacteria, mycobacteria and fungi” and the half-life in vivo [3] was “short half-life in vivo”.
